{"source": "patent US9096602B2", "about": "“Substituted pyrrolo[2,3-B]pyrazines as ATR kinase inhibitors” (Vertex Pharmaceuticals Incorporated, priority 2011, dated 2015)", "note": "pKi: −log10 of the molar value.", "data": [{"target": "T1, ATR kinase (full-length ATR) (Homo sapiens, UniProt Q13535)", "T1 construct": "Assays were carried out at 25° C. in the presence of 5 nM full-length ATR", "T1 sequence (Q13535 whole entry)": "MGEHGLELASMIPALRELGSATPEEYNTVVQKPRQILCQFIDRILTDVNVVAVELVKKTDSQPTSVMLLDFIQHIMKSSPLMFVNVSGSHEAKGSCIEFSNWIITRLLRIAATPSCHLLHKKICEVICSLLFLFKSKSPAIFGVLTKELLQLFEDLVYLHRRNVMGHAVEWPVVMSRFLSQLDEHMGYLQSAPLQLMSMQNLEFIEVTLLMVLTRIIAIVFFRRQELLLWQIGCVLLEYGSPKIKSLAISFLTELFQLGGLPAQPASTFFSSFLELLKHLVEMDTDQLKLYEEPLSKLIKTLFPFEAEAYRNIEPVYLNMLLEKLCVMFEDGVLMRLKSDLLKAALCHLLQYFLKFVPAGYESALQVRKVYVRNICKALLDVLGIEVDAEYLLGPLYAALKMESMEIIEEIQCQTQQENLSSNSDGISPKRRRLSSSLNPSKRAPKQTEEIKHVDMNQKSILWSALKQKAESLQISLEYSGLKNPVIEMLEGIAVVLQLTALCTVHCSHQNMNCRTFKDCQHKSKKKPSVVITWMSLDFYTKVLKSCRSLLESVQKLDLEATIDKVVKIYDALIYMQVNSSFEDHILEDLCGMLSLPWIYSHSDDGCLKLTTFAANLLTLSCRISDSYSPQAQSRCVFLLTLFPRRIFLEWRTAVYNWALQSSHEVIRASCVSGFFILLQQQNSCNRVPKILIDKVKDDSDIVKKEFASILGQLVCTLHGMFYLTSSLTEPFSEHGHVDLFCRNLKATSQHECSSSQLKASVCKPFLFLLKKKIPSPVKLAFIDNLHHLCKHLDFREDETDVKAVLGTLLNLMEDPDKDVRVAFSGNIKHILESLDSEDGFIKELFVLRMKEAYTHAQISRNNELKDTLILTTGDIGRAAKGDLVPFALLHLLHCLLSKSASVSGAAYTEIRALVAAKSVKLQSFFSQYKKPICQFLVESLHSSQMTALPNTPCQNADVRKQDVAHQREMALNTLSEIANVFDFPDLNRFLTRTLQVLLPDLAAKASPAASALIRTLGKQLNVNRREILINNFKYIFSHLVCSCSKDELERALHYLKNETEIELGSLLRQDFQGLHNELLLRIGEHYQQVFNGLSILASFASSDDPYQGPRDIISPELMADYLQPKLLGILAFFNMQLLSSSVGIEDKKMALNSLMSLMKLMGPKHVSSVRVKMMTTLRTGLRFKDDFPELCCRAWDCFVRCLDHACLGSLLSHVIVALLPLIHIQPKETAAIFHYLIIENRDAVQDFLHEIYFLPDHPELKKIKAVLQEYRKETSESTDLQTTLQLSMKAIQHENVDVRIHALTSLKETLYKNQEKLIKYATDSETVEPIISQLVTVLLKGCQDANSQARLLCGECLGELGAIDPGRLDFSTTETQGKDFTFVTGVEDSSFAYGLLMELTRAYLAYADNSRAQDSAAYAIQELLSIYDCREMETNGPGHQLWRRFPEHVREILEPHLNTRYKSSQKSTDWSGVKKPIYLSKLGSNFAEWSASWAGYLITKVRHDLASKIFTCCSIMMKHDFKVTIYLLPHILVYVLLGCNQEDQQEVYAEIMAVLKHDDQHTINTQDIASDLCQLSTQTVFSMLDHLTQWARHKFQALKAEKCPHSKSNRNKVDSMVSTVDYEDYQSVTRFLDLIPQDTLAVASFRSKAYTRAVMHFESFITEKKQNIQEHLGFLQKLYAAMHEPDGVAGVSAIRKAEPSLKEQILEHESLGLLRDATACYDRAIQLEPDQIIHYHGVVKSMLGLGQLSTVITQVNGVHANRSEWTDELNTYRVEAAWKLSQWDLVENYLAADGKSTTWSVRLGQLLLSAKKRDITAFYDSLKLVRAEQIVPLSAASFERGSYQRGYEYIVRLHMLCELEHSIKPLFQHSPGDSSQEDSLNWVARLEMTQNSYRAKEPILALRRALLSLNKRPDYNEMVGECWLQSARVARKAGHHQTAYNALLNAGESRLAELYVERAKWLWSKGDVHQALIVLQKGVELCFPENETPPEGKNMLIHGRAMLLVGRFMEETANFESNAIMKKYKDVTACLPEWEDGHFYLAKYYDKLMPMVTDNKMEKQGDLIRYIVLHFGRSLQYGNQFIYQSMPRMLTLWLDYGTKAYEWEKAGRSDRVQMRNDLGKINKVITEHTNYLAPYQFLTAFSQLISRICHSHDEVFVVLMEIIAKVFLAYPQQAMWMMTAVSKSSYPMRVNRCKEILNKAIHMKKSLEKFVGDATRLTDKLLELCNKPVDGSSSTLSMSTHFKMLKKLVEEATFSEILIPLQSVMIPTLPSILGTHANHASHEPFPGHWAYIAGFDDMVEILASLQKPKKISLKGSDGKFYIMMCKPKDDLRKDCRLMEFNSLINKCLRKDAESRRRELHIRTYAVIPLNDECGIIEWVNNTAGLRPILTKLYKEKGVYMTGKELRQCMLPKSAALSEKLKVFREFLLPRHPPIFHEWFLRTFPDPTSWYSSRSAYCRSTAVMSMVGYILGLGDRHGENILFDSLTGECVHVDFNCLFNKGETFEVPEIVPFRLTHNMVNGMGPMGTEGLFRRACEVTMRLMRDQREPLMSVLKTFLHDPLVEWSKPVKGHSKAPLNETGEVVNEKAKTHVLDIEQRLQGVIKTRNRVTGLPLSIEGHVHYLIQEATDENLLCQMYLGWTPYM", "assay": "ATR Inhibition Assay (radioactive-phosphate incorporation)", "format": "biochemical", "details": "Ki(app); 5 nM full-length ATR, 10 μM ATP, 800 μM target peptide, 25° C.; class symbols; read-out: ATR Inhibition Ki", "procedure,_shortened": "(§1)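 Radiometric 33P filter assay with 5 nM full-length ATR in 50 mM Tris/HCl pH 7.5, 10 mM MgCl2, 1 mM DTT at 25 °C. Final 10 μM [γ-33P]ATP and 800 μM peptide; 10 min compound preincubation, ATP start, stopped at 24 h with phosphoric acid/ATP. Ki(app) from non-linear regression of background-corrected initial rates.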", "values": [{"molecule": "CC(C)S(=O)(=O)c1ccc(-c2cnc3[nH]cc(C(=O)NC(CCO)c4cccc(N)c4)c3n2)cc1", "note": "(stereo not drawn) [Compound I-79, N-[1-(3-aminophenyl)-3-hydroxy-propyl]-2-(4-isopropylsulfonylphenyl)-5H-pyrrolo[2,3-b]pyrazine-7-carboxamide]", "pKi": "6.30 to 7.00"}, {"molecule": "CC(C)S(=O)(=O)c1ccc(-c2cnc3[nH]cc(C(=O)NC(CCO)c4ccc(N)cc4)c3n2)cc1", "note": "(stereo not drawn) [Compound I-80, N-[1-(4-aminophenyl)-3-hydroxy-propyl]-2-(4-isopropylsulfonylphenyl)-5H-pyrrolo[2,3-b]pyrazine-7-carboxamide]", "pKi": "6.30 to 7.00"}, {"molecule": "Cc1ccc([C@@H](CCO)NC(=O)c2c[nH]c3ncc(-c4ccc(S(=O)(=O)C(C)C)cc4)nc23)cc1", "note": "[Compound I-81, N-[(1R)-3-hydroxy-1-(p-tolyl)propyl]-2-(4-isopropylsulfonylphenyl)-5H-pyrrolo[2,3-b]pyrazine-7-carboxamide]", "pKi": "> 7.00"}, {"molecule": "Cc1ccc(CNC(=O)c2c[nH]c3ncc(-c4ccc(S(=O)(=O)C(C)C)cc4)nc23)c(C)c1", "note": "[Compound I-82, N-[(2,4-dimethylphenyl)methyl]-2-(4-isopropylsulfonylphenyl)-5H-pyrrolo[2,3-b]pyrazine-7-carboxamide]", "pKi": "> 7.00"}, {"molecule": "Cc1cccnc1CNC(=O)c1c[nH]c2ncc(-c3ccc(S(=O)(=O)C(C)C)cc3)nc12", "note": "[Compound I-83, 2-(4-isopropylsulfonylphenyl)-N-[(3-methyl-2-pyridyl)methyl]-5H-pyrrolo[2,3-b]pyrazine-7-carboxamide]", "pKi": "6.30 to 7.00"}, {"molecule": "CC(C)S(=O)(=O)c1ccc(-c2cnc3[nH]cc(C(=O)N[C@H](C)[C@@H](O)c4ccc(O)cc4)c3n2)cc1", "note": "[Compound I-84, N-[(1R,2S)-2-hydroxy-2-(4-hydroxyphenyl)-1-methyl-ethyl]-2-(4-isopropylsulfonylphenyl)-5H-pyrrolo[2,3-b]pyrazine-7-carboxamide]", "pKi": "6.30 to 7.00"}, {"molecule": "Cc1c(F)cccc1CNC(=O)c1c[nH]c2ncc(-c3ccc(S(=O)(=O)C(C)C)cc3)nc12", "note": "[Compound I-85, N-[(3-fluoro-2-methyl-phenyl)methyl]-2-(4-isopropylsulfonylphenyl)-5H-pyrrolo[2,3-b]pyrazine-7-carboxamide]", "pKi": "> 7.00"}, {"molecule": "CC(C)S(=O)(=O)c1ccc(-c2cnc3[nH]cc(C(=O)NC4CCOc5ccccc54)c3n2)cc1", "note": "(stereo not drawn) [Compound I-86, N-chroman-4-yl-2-(4-isopropylsulfonylphenyl)-5H-pyrrolo[2,3-b]pyrazine-7-carboxamide]", "pKi": "> 7.00"}, {"molecule": "Cc1ccc(F)cc1CNC(=O)c1c[nH]c2ncc(-c3ccc(S(=O)(=O)C(C)C)cc3)nc12", "note": "[Compound I-87, N-[(5-fluoro-2-methyl-phenyl)methyl]-2-(4-isopropylsulfonylphenyl)-5H-pyrrolo[2,3-b]pyrazine-7-carboxamide]", "pKi": "> 7.00"}, {"molecule": "CC(C)S(=O)(=O)c1ccc(-c2cnc3[nH]cc(C(=O)NCc4cccc(F)c4F)c3n2)cc1", "note": "[Compound I-88, N-[(2,3-difluorophenyl)methyl]-2-(4-isopropylsulfonylphenyl)-5H-pyrrolo[2,3-b]pyrazine-7-carboxamide]", "pKi": "> 7.00"}, {"molecule": "Cc1cccc(C)c1CNC(=O)c1c[nH]c2ncc(-c3ccc(S(=O)(=O)C(C)C)cc3)nc12", "note": "[Compound I-89, N-[(2,6-dimethylphenyl)methyl]-2-(4-isopropylsulfonylphenyl)-5H-pyrrolo[2,3-b]pyrazine-7-carboxamide]", "pKi": "> 7.00"}, {"molecule": "Cc1ccc([C@H](CCO)NC(=O)c2c[nH]c3ncc(-c4ccc(S(=O)(=O)C(C)C)cc4)nc23)cc1", "note": "[Compound I-91, N-[(1S)-3-hydroxy-1-(p-tolyl)propyl]-2-(4-isopropylsulfonylphenyl)-5H-pyrrolo[2,3-b]pyrazine-7-carboxamide]", "pKi": "6.30 to 7.00"}, {"molecule": "CC(C)S(=O)(=O)c1ccc(-c2cnc3[nH]cc(C(=O)NCc4cccc(Cl)c4F)c3n2)cc1", "note": "[Compound I-92, N-[(3-chloro-2-fluoro-phenyl)methyl]-2-(4-isopropylsulfonylphenyl)-5H-pyrrolo[2,3-b]pyrazine-7-carboxamide]", "pKi": "> 7.00"}, {"molecule": "CC(C)S(=O)(=O)c1ccc(-c2cnc3[nH]cc(C(=O)NCC4CCC(CN)CC4)c3n2)cc1", "note": "(stereo not drawn) [Compound I-93, N-[[4-(aminomethyl)cyclohexyl]methyl]-2-(4-isopropylsulfonylphenyl)-5H-pyrrolo[2,3-b]pyrazine-7-carboxamide]", "pKi": "6.30 to 7.00"}, {"molecule": "CC(C)S(=O)(=O)c1ccc(-c2cnc3[nH]cc(C(=O)NCC4(O)CCCCC4)c3n2)cc1", "note": "[Compound I-94, N-[(1-hydroxycyclohexyl)methyl]-2-(4-isopropylsulfonylphenyl)-5H-pyrrolo[2,3-b]pyrazine-7-carboxamide]", "pKi": "> 7.00"}, {"molecule": "CCN(C(=O)c1c[nH]c2ncc(-c3ccc(S(=O)(=O)C(C)C)cc3)nc12)C1CCCCC1", "note": "[Compound I-95, N-cyclohexyl-N-ethyl-2-(4-isopropylsulfonylphenyl)-5H-pyrrolo[2,3-b]pyrazine-7-carboxamide]", "pKi": "5.30 to 6.30"}, {"molecule": "CC(C)S(=O)(=O)c1ccc(-c2cnc3[nH]cc(C(=O)NC4CCC4)c3n2)cc1", "note": "[Compound I-97, N-cyclobutyl-2-(4-isopropylsulfonylphenyl)-5H-pyrrolo[2,3-b]pyrazine-7-carboxamide]", "pKi": "6.30 to 7.00"}, {"molecule": "CC(C)S(=O)(=O)c1ccc(-c2cnc3[nH]cc(C(=O)NOc4ccccc4)c3n2)cc1", "note": "[Compound I-100, 2-(4-isopropylsulfonylphenyl)-N-phenoxy-5H-pyrrolo[2,3-b]pyrazine-7-carboxamide]", "pKi": "> 7.00"}, {"molecule": "CC(C)S(=O)(=O)c1ccc(-c2cnc3[nH]cc(C(=O)NCC4CCCCC4O)c3n2)cc1", "note": "(stereo not drawn) [Compound I-101, N-[(2-hydroxycyclohexyl)methyl]-2-(4-isopropylsulfonylphenyl)-5H-pyrrolo[2,3-b]pyrazine-7-carboxamide]", "pKi": "> 7.00"}, {"molecule": "Cc1cccc([C@@H](CCO)NC(=O)c2c[nH]c3ncc(-c4ccc(S(=O)(=O)C(C)C)cc4)nc23)c1", "note": "[Compound I-102, N-[(1R)-3-hydroxy-1-(m-tolyl)propyl]-2-(4-isopropylsulfonylphenyl)-5H-pyrrolo[2,3-b]pyrazine-7-carboxamide]", "pKi": "6.30 to 7.00"}]}, {"target": "T1, ATR kinase (full-length ATR)", "assay": "ATR Inhibition Assay (radioactive-phosphate incorporation)", "format": "biochemical", "details": "Ki(app); 5 nM full-length ATR, 10 μM ATP, 800 μM target peptide, 25° C.; given as numeric lower bound without unit; read-out: ATR Inhibition Ki", "procedure,_shortened": "as §1", "values": [{"molecule": "CC(C)S(=O)(=O)c1ccc(-c2cnc3[nH]cc(C(=O)NCC4(N)CCCCC4)c3n2)cc1", "note": "[Compound I-90, N-[(1-aminocyclohexyl)methyl]-2-(4-isopropylsulfonylphenyl)-5H-pyrrolo[2,3-b]pyrazine-7-carboxamide]", "pKi": "< 6.60"}, {"molecule": "CC(C)S(=O)(=O)c1ccc(-c2cnc3[nH]cc(C(=O)N4CCCN(C)CC4)c3n2)cc1", "note": "[Compound I-96, [2-(4-isopropylsulfonylphenyl)-5H-pyrrolo[2,3-b]pyrazin-7-yl]-(4-methyl-1,4-diazepan-1-yl)methanone]", "pKi": "< 5.40"}, {"molecule": "CC(C)S(=O)(=O)c1ccc(-c2cnc3[nH]cc(C(=O)N4CCCC(N(C)C)C4)c3n2)cc1", "note": "(stereo not drawn) [Compound I-98, [3-(dimethylamino)-1-piperidyl]-[2-(4-isopropylsulfonylphenyl)-5H-pyrrolo[2,3-b]pyrazin-7-yl]methanone]", "pKi": "< 5.40"}, {"molecule": "CC(C)S(=O)(=O)c1ccc(-c2cnc3[nH]cc(C(=O)N4CCC(N(C)C)CC4)c3n2)cc1", "note": "[Compound I-99, [4-(dimethylamino)-1-piperidyl]-[2-(4-isopropylsulfonylphenyl)-5H-pyrrolo[2,3-b]pyrazin-7-yl]methanone]", "pKi": "< 5.40"}]}]}
